These results are taken from patent US20230364057A1, “BACTERIAL DNA GYRASE INHIBITORS AND METHODS OF USE THEREOF” (THE FLORIDA INTERNATIONAL UNIVERSITY BOARD OF TRUSTEES, priority 2022, published 2023).

Values joined by “and” are separate entries in the source; they are usually repeats but may differ in a detail not shown here. Equal values may be shown once. “Also recorded” adds a separate entry of the source.

The target of series [1] is T1, E. coli DNA gyrase (Escherichia coli (strain K12), UniProt P0AES4+P0AES6). As to the kind of experiment: Agarose gel-based DNA gyrase inhibition assay. Type of series: biochemical. How it is done: 100 ng of DNA gyrase was used to supercoil the rx pAB1 in the presence of different concentrations of a gyrase inhibitor. […] Samples were analyzed by electrophoresis in 1% w/v agarose gels followed by ethidium bromide staining and photographed under UV light.

In series [2] the target is T1, E. coli DNA gyrase. As to the kind of experiment: biochemical. It is filed as biochemical.
The target in the next series is Mtb DNA gyrase (Mycobacterium tuberculosis (strain ATCC 25618 / H37Rv), UniProt P9WG45+P9WG47). As to the kind of experiment: Mtb DNA gyrase inhibition assay (gel-based). It is filed as biochemical. Summed up: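 Supercoiling by 100 ng Mtb gyrase of 400 ng relaxed pAB1 in buffer with 1.75 mM ATP, pH 7.5, across inhibitor concentrations. Reactions ran 15 min at 37° C, stopped with SDS/EDTA. Products resolved on 1% agarose, ethidium bromide-stained; IC50 determined from gels.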

In series [3] the target is T1, E. coli DNA gyrase. Kind of series: DNA gyrase mediated DNA cleavage assay. Conditions: pBR322. It is filed as biochemical. Summed up:
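Supercoiled pBR322 (250 ng) incubated with 50 nM E. coli gyrase, 1.75 mM ATP and 200 µM compound in Tris-HCl/KCl/MgCl2/DTT/BSA/glycerol buffer, 37° C, 15 min. Complexes trapped with SDS and proteinase K (37° C, 1 h); cleavage products resolved on ethidium-stained agarose gel.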

Another series has as its target Mtb gyrase (Mycobacterium tuberculosis (strain ATCC 25618 / H37Rv), UniProt P9WG45+P9WG47). Kind of series: Mtb gyrase mediated DNA cleavage assay. Type of series: biochemical. Conditions: pBR322, 50-100 µM. The protocol: The IC50 against E. coli (A) and Mtb (C) gyrase were determined using the gel-based gyrase inhibition assays. The gyrase mediated DNA cleavage assays (B and D) were performed using pBR322. (A) 229 inhibits E. coli gyrase. Lane 1, rx pAB1. […] Lane 1, rx pAB1. […] 100 µM of CPDs were used. Symbols rx, nk, In, and sc represent relaxed, nicked, linear, and supercoiled DNA, respectively.

For the next series, the system named is Mtb. As to the kind of experiment: Mtb whole cell assay (% inhibition, MIC). Type of series: cell-based, Mycobacterium tuberculosis. Conditions: Mycobacterium tuberculosis.
The next series has as its system M. abscessus. Kind of series: MIC against M. abscessus. Type of series: cell-based, Mycobacterium abscessus. As to conditions: Mycobacteroides abscessus.
The nature of series [4]: in vitro. As to conditions: mouse.
Series [5] is described as follows: in vitro. As to conditions: human.
The subject of series [6] is NCI panel of 60 cancer cell lines. As to conditions: up to 1 mM; results of NCI DTP; cited from earlier work.
The subject of the next series is CDF1 mice. As to conditions: 800 mg/kg, 5 days, results of NCI DTP; cited from earlier work.
Another series relates to E. coli (ATCC 25922). As to the kind of experiment: Minimum inhibitory concentration, broth microdilution. In general terms: Broth dilution looks for growth in wells or tubes with falling amounts of substance.
The subject of the next series is S. aureus (ATCC 14775). Described as above. As to conditions: Staphylococcus aureus, ATCC14775, read-out: MIC (µM) Sa.

Experimental for E. coli (ATCC 25922): (§1) Antibacterial minimum inhibitory concentrations (MICs) were obtained from three independent experiments using broth microdilution methods in 96-well plates according to Clinical and Laboratory Standards Institute guidelines. Cells were culture from singles colonies in MHIIB medium for 24 h at 37° C. in agitation (200 RPM). The cultures were then diluted using the same media to reach an OD600 of 0.1. Then, 50 µL of the diluted cultures were added to the plates holding 50 µL of serially diluted compounds in MHIIB. The plates were incubated at 37° C. for 20 h. The starting inoculum was fixated to 10^5 colony-forming units per ml.
Experimental for S. aureus (ATCC 14775): as §1

A word on the IC50: it is the concentration that inhibits the measured activity by half. A word on the MIC: it is the lowest concentration that inhibits growth of the organism. Take `C[n+]1c(-c2ccc(C=NNC(=O)c3ccc(C(=O)NN=Cc4ccc(-c5cn6ccccc6[n+]5C)cc4)cc3)cc2)cn2ccccc21` [Compound 229]: the “inhibition of E. coli DNA gyrase activities” value against E. coli DNA gyrase [1] (50 µM of compounds) is reported as “completely inhibited”; at E. coli DNA gyrase [1] (200 µM of compounds), “completely inhibited”; on E. coli DNA gyrase [2], “inhibits”. Moreover, the IC50 at E. coli DNA gyrase [1] (gel-based, read-out: IC50 against E. coli DNA gyrase) was 16 µM; at Mtb DNA gyrase (Table 10, read-out: IC50 (µM) Mtb gyrase), ~2.6 µM and 2.6 µM; in the series “in vitro [4]” it was over 200 µM; in “in vitro [5]”, over 200 µM. Besides, the “inhibition of Mtb DNA gyrase activities” value against Mtb DNA gyrase is “potently inhibits”. Further, the “E. coli DNA gyrase-mediated DNA breaks and nicking” value on E. coli DNA gyrase [3] is recorded as “enhances the E. coli gyrase-mediated DNA nicking; also recorded: induces DNA nicking”. Besides, the “Mtb gyrase-mediated DNA nicking and double-stranded breaks” value at Mtb gyrase was “significantly enhances the gyrase-mediated DNA nicking and double-stranded breaks”. Also, the MIC with Mtb was 7.1 µM; with M. abscessus it was 10.1 µM; with E. coli (ATCC 25922) (Escherichia coli, ATCC25922, read-out: MIC (µM) Ec, E. coli strain ATCC25922), 6.25 to 12.5 µM; with S. aureus (ATCC 14775), over 200 µM. In addition, the “cytotoxicity against the NCI panel of 60 cancer cell lines” value in series [6] is listed as “no cytotoxicity”. The survival in the series on CDF1 mice is given as 100%. Moreover, the “MIC (µM) Ec” value with E. coli (ATCC 25922) (E. coli strain ATCC25922) is given as 12.5 µM.
